Laboratory results published in paper PMC7321402, “Insights on the Extraction Performance of Alkanediols and Glycerol: Using Juglans regia L. Leaves as a Source of Bioactive Compounds” (Molecules, 2020).
In brackets after ≈: the same amount, converted by molar mass. Several values for one entry are separate records, joined by “and”; a condition that tells them apart may be missing. Equal entries are not always repeated. Where two headings read alike, the source gives them in different places.

Experiments:
[1] = test system: non-tumor PLP2 cells (porcine liver primary cells); test: Sulforhodamine B growth inhibition assay, PLP2 (hepatotoxicity)
Procedure: (§1) J. regia leaf extracts (30 mg/mL) and solvents were studied regarding their inhibitory growth activity of the HeLa (cervical carcinoma) cell line and the non-tumor PLP2 cells (porcine liver primary cells) by using a sulforhodamine B assay. The extracts were diluted to obtain a stock solution of 10 mg/mL, and the concentration of the working solutions ranged from 500 to 7.8 µg/mL, while the concentration of the solvents ranged from 4% to 0.0156%. Ellipticine was used as positive control. The experimental protocol related to the cell cultures was previously described by Barros et al. and Abreu et al..

[2] = test system: HeLa (cervical carcinoma) cell line; test: Sulforhodamine B growth inhibition assay, HeLa; assay type: cell-based, human
Procedure: as §1

[3] = Sulforhodamine B growth inhibition assay, PLP2 (hepatotoxicity); conditions: pig, PLP2 cells (porcine liver primary cells, non-tumor)
Procedure: as §1

[4] = solvent without extract, range 4% to 0.0156%, mean ± SD

| Structure (SMILES) | GI50 PLP2, Solvent [1, 4] | GI50 HeLa, Solvent [2, 4] | other results |
| --- | --- | --- | --- |
| OCCO [1,2-ethanediol] | – | – | GI50 PLP2, Solvent [1]: >4 %, v/v; GI50 HeLa, Solvent [2]: >4 %, v/v |
| CCCCC(O)CO (stereo not shown) [1,2-hexanediol] | 0.285 ± 0.005 %, v/v and 0.285 ± 0.005c %, v/v | 0.36 ± 0.02 %, v/v and 0.36 ± 0.02c %, v/v | – |
| CCCC(O)CO (stereo not shown) [1,2-pentanediol] | 0.89 ± 0.04a %, v/v | 0.63 ± 0.04a %, v/v | – |
| CC(O)CO (stereo not shown) [1,2-propanediol] | >4 %, v/v | >4 %, v/v | – |
| CC(O)CCO (stereo not shown) [1,3-butanediol] | >4 %, v/v | >4 %, v/v | – |
| OCCCO [1,3-propanediol] | >4 %, v/v | >4 %, v/v | – |
| OCCCCCO [1,5-pentanediol] | – | 0.49 ± 0.02b %, v/v | GI50 PLP2, Solvent ([1]; pig): 0.59 ± 0.02b %, v/v |
| Cc1c2ccncc2c(C)c2c1[nH]c1ccccc12 [Ellipticine, reference compound] | – | – | GI50 [3]: 2.3 µg/mL (≈ 9.34 µM); GI50 ([2]; Homo sapiens, HeLa, positive control, mean ± SD): 1 ± 0.1 µg/mL (≈ 4.06 µM) |
| CCO [Ethanol, ethanol] | – | >4 %, v/v | GI50 PLP2, Solvent [1]: >4 %, v/v |
| OCC(O)CO [Glycerol, glycerol] | – | >4 %, v/v | GI50 PLP2, Solvent ([1]; pig): >4 %, v/v |
| O [Water, water] | – | >4 %, v/v | GI50 PLP2, Solvent [1]: >4 %, v/v |
